Laboratory results as given in article PMC4588179, “Antifungal Activity of 14-Helical β-Peptides against Planktonic Cells and Biofilms of Candida Species” (Pharmaceuticals, 2015).

Assays:
[1] = RP-HPLC retention time as measure of β-peptide hydrophobicity; type: physicochemical; conditions: chromatographic, analytical RP-HPLC, C18 (Waters X-bridge, 4.6 mm × 250 mm), gradient 20%–80% CH3CN in water with 0.1% TFA over 5–35 min, 1 mL/minute, 0.5 to 1 mg/mL, 50 µL injected; mean ± standard deviation of triplicate measurements
Description: β-peptides were produced by microwave-assisted Fmoc synthesis at 20−40 μmol scales and purified by RP-HPLC using a C18 column. MALDI mass spectrometry was used to validate the mass of each peptide as described previously. Retention times determined by C18 RP-HPLC were used as a measure of the relative hydrophobicity of the β-peptides (Table 1). This approach has been used previously by our group and others to assess the relative hydrophobicity of different peptide structures. Preliminary antifungal activity and mammalian toxicity evaluation were reported previously for β-peptides 1–16 as planktonic MIC against C. albicans and percent hemolysis at the MIC, respectively.
Hydrophobicity of 14-helical β-peptides was characterized by measuring retention times with an analytical RP-HPLC using a C18 column (Waters, X-bridge, column dimensions 4.6 mm × 250 mm, Milford, MA, USA). The β-peptide solutions (0.5 to 1 mg/mL, 50 µL) were injected into the HPLC at a flow rate of 1 mL/minute. Retention time was characterized in triplicate with a gradient of 20%–80% CH3CN in water containing 0.1% TFA over 5–35 min.

[2] = system: C. albicans SC5314 biofilm formation; assay: Biofilm formation in the presence of β-peptides, XTT; type: cell-based, Candida albicans; conditions: 10^6 cells/mL incubated with 2-fold dilutions of β-peptide, 37 °C, 48 h, washed, 10% or less metabolic activity vs untreated control
Experimental: C. albicans, C. glabrata, C. tropicalis, and C. parapsilosis biofilm formation in the presence of β-peptide was evaluated using a procedure used previously. Briefly, 100 μL of overnight cultures of C. albicans SC5314, C. glabrata, C. parapsilosis, and C. tropicalis adjusted to 2 × 10^6 cells/mL was added to 100 μL of two-fold serially diluted β-peptide in a 96-well plates. Peptide-free controls and cell and peptide-free controls were included for each peptide assayed and the plates were incubated at 37 °C for 48 h. After 48 h, biofilms were washed with PBS to remove non-adherent cells and the metabolic activity of biofilms grown in the presence of β-peptide was determined using XTT.
For evaluation of metabolic activities of planktonic cells and biofilms in susceptibility testing in 96-well plates, 100 μL of XTT solution was added to every well and plates were incubated at 37 °C in the dark for 1.5 h for C. albicans and 2.5 h for C. glabrata, C. parapsilosis and C. tropicalis. At the end of the incubation, 75 μL of supernatant from wells were transferred to a new plate and absorbance at 490 nm was measured. The percent metabolic activity was calculated as: Metabolic Activity (%)= (A490− A490background)/A490cell control− A490background ×100 where A490 , A490cell control , and A490background are the average absorbance values of wells containing a specific concentration of β-peptide, cell control wells without β-peptide, and media only wells, respectively. Experiments were performed in triplicate and repeated on at least two different days.

[3] = system: human red blood cells (hRBCs); assay: Hemolysis of human red blood cells; type: cell-based; conditions: red cells of human
Experimental: Table S1. Hemolysis of β-peptide 1-16, concentration of β-peptid e needed for 50% lysis of human red blood cells (hRBCs)
Peptide # Peptide Concentration at 50% Hemolysis a (HC50, µg/mL) […]
a Hemolysis assays were perfor med as previously indicated in Lee, M.R. et al., ACS Chem. Biol. (2014). Briefly, equal volumes of 2-fold dilutions of β-peptides in tris-buffered saline (TBS) were incubated with hRBCs for an hour at 37 °C. Supernatants were transferred to a new plate and absorbance was measured at 405 nm.
% hemolysis was calculated relative to positive lysis control and the concentration of peptide needed for 50% hemolysis was recorded as HC50 for that peptide. Values reported are average measurements from three independent experiments of duplicates each and the error denoted is the standard deviation. Concentration dependent hemolysis graphs can be found in Lee, M.R. et al., ACS Chem. Biol. (2014).

| SMILES | Hydrophobicity (HPLC Retention Time, min) [1] [min] | MIC, Biofilm Formation (C. albicans) [2] [µg/mL] | Peptide Concentration at 50% Hemolysis (HC50) [3] [µg/mL] |
| --- | --- | --- | --- |
| C[C@@H](CC(=O)N[C@@H](CCCCN)CC(N)=O)NC(=O)[C@H]1CCCC[C@@H]1NC(=O)C[C@H](CCCCN)NC(=O)C[C@H](C)NC(=O)[C@H]1CCCC[C@@H]1NC(=O)C[C@H](CCCCN)NC(=O)C[C@H](C)NC(=O)[C@H]1CCCC[C@@H]1N [Peptide 1] | 19.3 ± 0.1 | – | – |
| CC[C@@H](CC(=O)N[C@@H](CCCCN)CC(N)=O)NC(=O)[C@H]1CCCC[C@@H]1NC(=O)C[C@H](CCCCN)NC(=O)C[C@H](CC)NC(=O)[C@H]1CCCC[C@@H]1NC(=O)C[C@H](CCCCN)NC(=O)C[C@H](CC)NC(=O)[C@H]1CCCC[C@@H]1N [Peptide 2] | 22.5 ± 0.2 | 64 | – |
| CC[C@@H](CC(=O)N[C@@H](CCCNC(=N)N)CC(N)=O)NC(=O)[C@H]1CCCC[C@@H]1NC(=O)C[C@H](CCCNC(=N)N)NC(=O)C[C@H](CC)NC(=O)[C@H]1CCCC[C@@H]1NC(=O)C[C@H](CCCNC(=N)N)NC(=O)C[C@H](CC)NC(=O)[C@H]1CCCC[C@@H]1N [Peptide 3] | 23.2 ± 0.1 | 32 | – |
| CC(C)[C@@H](CC(=O)N[C@@H](CCCNC(=N)N)CC(N)=O)NC(=O)[C@H]1CCCC[C@@H]1NC(=O)C[C@H](CCCNC(=N)N)NC(=O)C[C@@H](NC(=O)[C@H]1CCCC[C@@H]1NC(=O)C[C@H](CCCNC(=N)N)NC(=O)C[C@@H](NC(=O)[C@H]1CCCC[C@@H]1N)C(C)C)C(C)C [Peptide 5] | 25.4 ± 0.1 | 8 | – |
| NCCCC[C@@H](CC(N)=O)NC(=O)[C@H]1CCCC[C@@H]1NC(=O)[C@H]1CCCC[C@@H]1NC(=O)C[C@H](CCCCN)NC(=O)[C@H]1CCCC[C@@H]1NC(=O)[C@H]1CCCC[C@@H]1NC(=O)C[C@H](CCCCN)NC(=O)[C@H]1CCCC[C@@H]1NC(=O)[C@H]1CCCC[C@@H]1N [Peptide 6] | 23.1 ± 0.2 | – | – |
| N=C(N)NCCC[C@@H](CC(N)=O)NC(=O)[C@H]1CCCC[C@@H]1NC(=O)[C@H]1CCCC[C@@H]1NC(=O)C[C@H](CCCNC(=N)N)NC(=O)[C@H]1CCCC[C@@H]1NC(=O)[C@H]1CCCC[C@@H]1NC(=O)C[C@H](CCCNC(=N)N)NC(=O)[C@H]1CCCC[C@@H]1NC(=O)[C@H]1CCCC[C@@H]1N [Peptide 7] | 23.8 ± 0.1 | 16 | – |
| NCCCC[C@@H](CC(N)=O)NC(=O)C[C@H](Cc1ccccc1)NC(=O)[C@H]1CCCC[C@@H]1NC(=O)C[C@H](CCCCN)NC(=O)C[C@H](Cc1ccccc1)NC(=O)[C@H]1CCCC[C@@H]1NC(=O)C[C@H](CCCCN)NC(=O)C[C@H](Cc1ccccc1)NC(=O)[C@H]1CCCC[C@@H]1N [Peptide 8] | 26.2 ± 0.2 | 8 | – |
| C[C@@H](CC(=O)N[C@@H](CCCCN)CC(=O)N[C@H]1CCCC[C@@H]1C(=O)N[C@@H](C)CC(=O)N[C@@H](CCCCN)CC(=O)N[C@H]1CCCC[C@@H]1C(=O)N[C@@H](C)CC(=O)N[C@@H](CCCCN)CC(N)=O)NC(=O)[C@H]1CCCC[C@@H]1NC(=O)C[C@@H](N)Cc1ccc(O)cc1 [Peptide 9] | 20.4 ± 0.2 | – | > 400 |
| CC[C@@H](CC(=O)N[C@@H](CCCCN)CC(=O)N[C@H]1CCCC[C@@H]1C(=O)N[C@@H](CC)CC(=O)N[C@@H](CCCCN)CC(=O)N[C@H]1CCCC[C@@H]1C(=O)N[C@@H](CC)CC(=O)N[C@@H](CCCCN)CC(N)=O)NC(=O)[C@H]1CCCC[C@@H]1NC(=O)C[C@@H](N)Cc1ccc(O)cc1 [Peptide 10] | 23.5 ± 0.1 | – | 149 ± 20 |
| CC[C@@H](CC(=O)N[C@@H](CCCNC(=N)N)CC(=O)N[C@H]1CCCC[C@@H]1C(=O)N[C@@H](CC)CC(=O)N[C@@H](CCCNC(=N)N)CC(=O)N[C@H]1CCCC[C@@H]1C(=O)N[C@@H](CC)CC(=O)N[C@@H](CCCNC(=N)N)CC(N)=O)NC(=O)[C@H]1CCCC[C@@H]1NC(=O)C[C@@H](N)Cc1ccc(O)cc1 [Peptide 11] | 24.2 ± 0.1 | – | 79 ± 8 |
| CC(C)[C@@H](CC(=O)N[C@@H](CCCCN)CC(=O)N[C@H]1CCCC[C@@H]1C(=O)N[C@H](CC(=O)N[C@@H](CCCCN)CC(=O)N[C@H]1CCCC[C@@H]1C(=O)N[C@H](CC(=O)N[C@@H](CCCCN)CC(N)=O)C(C)C)C(C)C)NC(=O)[C@H]1CCCC[C@@H]1NC(=O)C[C@@H](N)Cc1ccc(O)cc1 [Peptide 12] | 25.7 ± 0.1 | – | 12 ± 6 |
| CC(C)[C@@H](CC(=O)N[C@@H](CCCNC(=N)N)CC(=O)N[C@H]1CCCC[C@@H]1C(=O)N[C@H](CC(=O)N[C@@H](CCCNC(=N)N)CC(=O)N[C@H]1CCCC[C@@H]1C(=O)N[C@H](CC(=O)N[C@@H](CCCNC(=N)N)CC(N)=O)C(C)C)C(C)C)NC(=O)[C@H]1CCCC[C@@H]1NC(=O)C[C@@H](N)Cc1ccc(O)cc1 [Peptide 13] | 26.5 ± 0.2 | – | 11 ± 2 |
| NCCCC[C@@H](CC(N)=O)NC(=O)[C@H]1CCCC[C@@H]1NC(=O)[C@H]1CCCC[C@@H]1NC(=O)C[C@H](CCCCN)NC(=O)[C@H]1CCCC[C@@H]1NC(=O)[C@H]1CCCC[C@@H]1NC(=O)C[C@H](CCCCN)NC(=O)[C@H]1CCCC[C@@H]1NC(=O)[C@H]1CCCC[C@@H]1NC(=O)C[C@@H](N)Cc1ccc(O)cc1 [Peptide 14] | 24.0 ± 0.2 | – | 106 ± 37 |
| N=C(N)NCCC[C@@H](CC(N)=O)NC(=O)[C@H]1CCCC[C@@H]1NC(=O)[C@H]1CCCC[C@@H]1NC(=O)C[C@H](CCCNC(=N)N)NC(=O)[C@H]1CCCC[C@@H]1NC(=O)[C@H]1CCCC[C@@H]1NC(=O)C[C@H](CCCNC(=N)N)NC(=O)[C@H]1CCCC[C@@H]1NC(=O)[C@H]1CCCC[C@@H]1NC(=O)C[C@@H](N)Cc1ccc(O)cc1 [Peptide 15] | 24.6 ± 0.2 | – | 73 ± 40 |
| NCCCC[C@@H](CC(N)=O)NC(=O)C[C@H](Cc1ccccc1)NC(=O)[C@H]1CCCC[C@@H]1NC(=O)C[C@H](CCCCN)NC(=O)C[C@H](Cc1ccccc1)NC(=O)[C@H]1CCCC[C@@H]1NC(=O)C[C@H](CCCCN)NC(=O)C[C@H](Cc1ccccc1)NC(=O)[C@H]1CCCC[C@@H]1NC(=O)C[C@@H](N)Cc1ccc(O)cc1 [Peptide 16] | 27.4 ± 0.2 | – | 3 ± 1 |
